This is an account of results in publication PMC10062145 (Journal of Virology, 2023).

Residues, ends and D or L forms follow the SMILES beside them. *: point of attachment. Cbz = O=C(OCc1ccccc1)* Where only a bound is given, the exact number is not on record here.

The subject of data set [1] is NDV F48E9. Briefly: microbe, parasite or virus in culture. The format is cell-based, Newcastle disease virus. Particulars: for IC50: avian paramyxovirus 1, 24 h.
Another data set has as its system IFN-β. The format is cell-based.
The test system of the next data set is β-catenin. The data set is classed as cell-based.
Data set [2] has as its system NDV PPMV-1/SX-01/Ch/15(VI). Briefly: microbe, parasite or virus in culture. The data set is classed as cell-based, Newcastle disease virus. To be noted: avian paramyxovirus 1, 24 h, read-out: IC50 PPMV-1/SX-01/Ch/15(VI).
The subject of the next data set is NDV La sota (II). Briefly: microbe, parasite or virus in culture. To be noted: avian paramyxovirus 1, 24 h, read-out: IC50 La sota (II). The data set is classed as cell-based, Newcastle disease virus.
Data set [3] deals with NDV Blackbird/China/08(IX). Description: microbe, parasite or virus in culture. The format is cell-based, Newcastle disease virus. Particulars: avian paramyxovirus 1, 24 h, read-out: IC50 Blackbird/China/08(IX).
The next data set concerns F48E9 L protein. The format is cell-based, Newcastle disease virus.
The subject of data set [4] is PPRV, CDV, VSV, PRRSV, AIV, PRV. Description: organism not typed. The format is cell-based. To be noted: read-out: IC50 against these viruses (PPRV, CDV, VSV, PRRSV, AIV, PRV).
Data set [5] deals with GSK-3β. The format is binding.
Another data set relates to AIV. Briefly: microbe, parasite or virus in culture. The data set is classed as cell-based, avian influenza virus.
The next data set in a line: in vitro. To be noted: chicken.
Another data set has as its system PRV. Briefly: microbe, parasite or virus in culture. The data set is classed as cell-based, pseudorabies virus.
Another data set has as its system PPRV. Briefly: microbe, parasite or virus in culture. The data set is classed as cell-based, peste des petits ruminants virus.
The next data set has as its system OASL. The format is cell-based.
The target in data set [6] is T1, HSP90β (Gallus gallus, UniProt Q04619).
T1 construct: endogenous in cells; host or cells: DF-1 cell lysate
Description: Drug affinity responsive target stability (DARTS), HSP90β. The format is binding. To be noted: 200 μM, DF-1 cell lysate, 50 ng of pronase.

Data set [7] concerns GSK-3β. The data set is classed as binding. The source holds these as a separate data set.
The next data set relates to PRRSV. Briefly: microbe, parasite or virus in culture. The data set is classed as cell-based, porcine reproductive and respiratory syndrome virus.
Another data set has as its system Wnt/β-catenin pathway. The data set is classed as cell-based.
The next data set has as its system CDV. Description: microbe, parasite or virus in culture. The format is cell-based, canine distemper virus.
For data set [8], the system named is NDV F48E9. The data set is classed as cell-based, Newcastle disease virus.
In data set [9] the test system is genes downstream of the Wnt/β-catenin pathway. The format is cell-based.
Another data set has as its system NP, P protein. The format is cell-based, Newcastle disease virus.
Data set [10] relates to NDV F48E9. The format is cell-based, Newcastle disease virus. This is another data set of the same source.
For data set [11], the target named is T1, HSP90β. Description: Cellular thermal shift assay (CETSA), HSP90β. Particulars: 200 μM, DF-1 cell lysate. The format is binding.
Data set [12] has as its system NDV F48E9. The data set is classed as cell-based, Newcastle disease virus. This is another data set of the same source.
In a further data set the test system is VSV. Briefly: microbe, parasite or virus in culture. The data set is classed as cell-based, vesicular stomatitis virus.
In a further data set the test system is chicken IFN-β promoter. The format is cell-based.
For another data set, the system named is MX1. The format is cell-based.

T1 sequence (Q04619 whole entry): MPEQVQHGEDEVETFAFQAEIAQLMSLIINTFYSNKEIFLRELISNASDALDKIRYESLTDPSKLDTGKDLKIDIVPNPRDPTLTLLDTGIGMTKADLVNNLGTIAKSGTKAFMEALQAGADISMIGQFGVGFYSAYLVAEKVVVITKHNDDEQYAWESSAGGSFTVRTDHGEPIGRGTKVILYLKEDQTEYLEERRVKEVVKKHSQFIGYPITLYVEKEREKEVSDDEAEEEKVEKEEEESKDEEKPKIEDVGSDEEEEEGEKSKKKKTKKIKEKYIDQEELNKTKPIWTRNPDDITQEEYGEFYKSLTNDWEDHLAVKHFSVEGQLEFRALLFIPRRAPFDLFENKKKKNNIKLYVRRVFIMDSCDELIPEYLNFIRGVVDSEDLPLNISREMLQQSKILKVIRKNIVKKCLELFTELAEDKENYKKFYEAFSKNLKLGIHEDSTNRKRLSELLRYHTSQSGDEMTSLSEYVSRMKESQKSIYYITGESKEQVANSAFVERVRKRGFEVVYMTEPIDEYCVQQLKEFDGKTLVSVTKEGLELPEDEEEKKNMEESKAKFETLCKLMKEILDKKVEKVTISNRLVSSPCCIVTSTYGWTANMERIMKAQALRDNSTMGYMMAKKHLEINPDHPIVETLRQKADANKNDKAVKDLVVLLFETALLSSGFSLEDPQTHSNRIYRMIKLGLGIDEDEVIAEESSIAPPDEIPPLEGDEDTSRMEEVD

Consider `C=CCNC1=C2C[C@@H](C)C[C@H](OC)[C@H](O)[C@@H](C)/C=C(\C)[C@H](OC(N)=O)[C@@H](OC)/C=C\C=C(/C)C(=O)NC(=CC1=O)C2=O` [17-AAG], for which the “reduction of infectious virus particle production” value with NDV F48E9 [1] worked out at 4.19 Log.

As to `[Cl-].[Li+]` [LiCl, reference compound], the “expression of IFN-β” value in the data set on IFN-β is listed as “enhanced”. Further, the “reduction in infectious virus particle production” value with NDV F48E9 [1] worked out at 2.69 Log.

As to `CC(C)C[C@@H](C=O)NC(=O)[C@H](CC(C)C)NC(=O)[C@H](CC(C)C)NC(=O)OCc1ccccc1` [MG-132] (Cbz-Leu-Leu-Leu-aldehyde), the “amounts of β-catenin in NDV-infected cells” value with β-catenin was “significantly restored”.

With `NC(=O)c1ncn([C@@H]2O[C@H](CO)[C@@H](O)[C@H]2O)n1` [Ribavirin, reference compound], the IC50 is 11600 ± 2130 nM in [2], 7970 ± 1590 nM with NDV La sota (II), 10400 ± 2850 nM in data set [3] and 8620 ± 1440 nM in the data set with NDV F48E9 [1].

With `CCCCn1c2cc(O)ccc2c2ccnc(C)c21` [compound 11, 9-butyl-harmol], the “expression of L” value in the data set on F48E9 L protein was “significant reduction”. Further, the IC50 in [4] was 380 to 810 nM; in the data set with AIV (unidentified influenza virus, A549, 24 h, read-out: IC50 AIV), 530 ± 180 nM; in data set [2], 710 ± 260 nM; with PRV (Suid alphaherpesvirus 1, BHK-21, 24 h, read-out: IC50 PRV), 810 ± 110 nM; in the data set on PPRV (peste-des-petits-ruminants virus, Vero, 24 h, read-out: IC50 PPRV), 380 ± 60 nM; in the data set on NDV La sota (II) it was 580 ± 80 nM. Besides, the IC50 in data set [3] stood at 630 ± 300 nM; in the data set on PRRSV (Porcine reproductive and respiratory syndrome virus, MARC145, 24 h, read-out: IC50 PRRSV), 540 ± 150 nM; with CDV (canine distemper virus, Vero, 24 h, read-out: IC50 CDV) it was 400 ± 120 nM; in the data set on NDV F48E9 [1], 490 ± 110 nM; with VSV (Vesicular stomatitis virus, BHK-21, 24 h, read-out: IC50 VSV) it was 430 ± 160 nM. The “proteolysis of GSK-3β by pronase (DARTS)” value with GSK-3β [5] is “less sensitive to proteolysis”. Also, the “reduction in mRNA expression level of AIV” value with AIV is on record as > 80%. For the same molecule, the CC50 in the data set “in vitro” was > 50000 nM. Moreover, in the data set on PRV, the “reduction of mRNA of PRV” value came out at 66.83%. Also, the “inhibitory rate (reduction) against PPRV” value in the data set with PPRV is recorded as “higher than 99%”. Further, in the data set on PPRV, the “reduction of PPRV mRNA” value is 100 fold. The “expression of OASL upon F48E9 infection” value in the data set with OASL was 2.51 fold. Further, the “pronase-induced digestion of HSP90β (DARTS)” value at HSP90β [6] was “prevented”. In addition, the “thermal stability of GSK-3β (CETSA)” value in the data set with GSK-3β [7] is reported as “strongly changed the thermal stability”. Moreover, the “reduction in mRNA expression level of PRRSV” value with PRRSV is > 80%. The TOPFlash/FOPFlash luciferase activity result with Wnt/β-catenin pathway is reported as “significantly activated”. Also, in the data set with CDV, the “inhibitory rate (reduction) against CDV” value is “higher than 99%”. Besides, the “reduction of CDV mRNA” value in the data set on CDV is reported as 100 fold. The “expression of IFN-β with NDV infection” value in the data set with IFN-β was 1.95 fold. For the same molecule, the “expression of IFN-β without NDV infection” value in the data set with IFN-β is 3.04 fold. The “inhibitory rate (reduction compared to DMSO-treated cells), primary screening” value with NDV F48E9 [1] was “higher than 99%”. Further, in the data set with NDV F48E9 [1], the “reduction in infectious virus particle production, high dose of NDV” value was found to be 3.08 Log. Besides, the “reduction of infectious virus particle production” value in the data set on NDV F48E9 [1] worked out at 5.26 Log. In the data set with NDV F48E9 [8], the “viral inhibition in time-of-addition study” value is on record as “significant viral inhibition”. The “MYC upregulation (transcriptome)” value in data set [9] stood at 2.1287 fold. Also, the “PPARgamma upregulation (transcriptome)” value in [9] is on record as 2.7893 fold. Moreover, the “WISP1 upregulation (transcriptome)” value in data set [9] came to 5.2201 fold. The “expression of NP and expression of P” value in the data set with NP, P protein was “not affected”. The NDV adsorption result in the data set with NDV F48E9 [10] is “not inhibited”. The “thermal stability of cellular HSP90β (CETSA)” value at HSP90β [11] is recorded as “increased the thermal stability”. Moreover, the “entry of NDV” value with NDV F48E9 [12] was “no effect”. The “reduction in mRNA expression level of VSV” value in the data set with VSV is > 80%. Further, the “IFN-β promoter activity with NDV infection” value with chicken IFN-β promoter worked out at 2.89 fold. Moreover, the “IFN-β promoter activity without NDV infection” value in the data set on chicken IFN-β promoter is given as 4.90 fold. Also, in the data set on MX1, the “expression of MX1 upon F48E9 infection” value amounted to 3.13 fold.

As for `COc1ccc2c(c1)[nH]c1c(C)nccc12` [harmine, reference compound], the “anti-PRV activity (harmine)” value in the data set with PRV was “excellent”. Moreover, in the data set on NDV F48E9 [1], the “effect on NDV proliferation (harmine)” value is listed as “no effect”.

With `Cc1cc(/C=C2\SC(=O)N(c3ccccc3)C2=O)c(C)n1-c1cccnc1` [iCRT14], the “effect on the proliferation of NDV” value in the data set with NDV F48E9 [1] is on record as “no effect”.

For `COC[C@H]1OC(=O)c2coc3c2[C@@]1(C)C1=C(C3=O)[C@@H]2CCC(=O)[C@@]2(C)C[C@H]1OC(C)=O` [wortmannin], the “amounts of β-catenin in NDV-infected cells” value with β-catenin was “no effect”.
